Measured values as given in patent US7291295B2, “Method for precipitating finely divided solid particles” (Sociedad Espanola de Carburos Metalicos, S.A., priority 2000, dated 2007).
Each block holds one compound with its values, some of them ahead of it.

Experiment: Particle size and size distribution of precipitate by Coulter technique using light dispersion
Assay type: physicochemical
Description: FIGS. 8, 10 and 11 show the distribution of size of the particles using the Coulter technique using light dispersion.
The geometrical characteristics of the particles of precipitate (size and distribution of sizes) are measured by the Coulter technique that uses light dispersion with Fourier lenses. Thus, by “particle size” is meant the value of the median of the curve of distribution of particles, in % in volume, and by “distribution of sizes” is meant the value of the standard deviation from the same curve.

Compound: CC(=O)Nc1ccc(O)cc1 [acetaminophen]
- average size of particles of precipitate (Example 1, method of the invention, ethanol-CO2, 100 bar, 42° C., 1,750 ml solution): 15 μm
- average size of particles of precipitate (Example 2, GAS process fraction (filter 11), ethanol-CO2, 100 bar, 42° C.): 50 μm
- average size of particles of precipitate (Example 2, method of the invention (filter 13), ethanol-CO2, 100 bar, 42° C., 1,600 ml solution): 15 μm
- average size of particles of precipitate (Example 5, GAS process (filter 11), acetone-CO2, 100 bar, 42° C.): 50 μm

Compound: CC(=O)Oc1ccccc1C(=O)O [aspirin]
- average size of particles of precipitate (Example 6, method of the invention, acetone-CO2, 70 bar, 25° C., molar fraction of CO2 0.6): 14 μm

Compound: CCCCNc1ccc(NCCCC)c2c1C(=O)c1ccccc1C2=O [solvent blue 35]
- average size of particles of precipitate (Example 3, method of the invention, acetone-CO2, 60 bar, 25° C., 1,400 ml solution (FIG. 8)): 5 μm
- average size of particles of precipitate (Example 4, GAS process fraction (filter 11), acetone-CO2, 60 bar, 25° C. (FIG. 10)): 70 μm
- average size of particles of precipitate (Example 4, method of the invention (filter 13), acetone-CO2, 60 bar, 25° C., 640 ml solution (FIG. 11)): 4 μm

Other lines, results leading:

- average size of particles of precipitate (Example 8, method of the invention, ethanol-CO2, 100 bar, 25° C., molar fraction of CO2 0.7): 8 μm
Compound: C1N2CN3CN1CN(C2)C3 [methenamine]

- average size of particles of precipitate (Example 7, method of the invention, ethyl acetate-CO2, 100 bar, 25° C., molar fraction of CO2 0.6): 2 μm
Compound: CCCCCCCCCCCCCCCCCC(=O)O [stearic acid]
